{
  "source": "patent US20240269139A1",
  "about": "“COMPOUNDS FOR TARGETED PROTEIN DEGRADATION OF KINASES” (DANA-FARBER CANCER INSTITUTE, INC., priority 2020, published 2024)",
  "key": {"[1]": {"molecular_target": "protein kinases (human kinome) (Homo sapiens, UniProt Q00534)", "sequence (Q00534 whole entry)": "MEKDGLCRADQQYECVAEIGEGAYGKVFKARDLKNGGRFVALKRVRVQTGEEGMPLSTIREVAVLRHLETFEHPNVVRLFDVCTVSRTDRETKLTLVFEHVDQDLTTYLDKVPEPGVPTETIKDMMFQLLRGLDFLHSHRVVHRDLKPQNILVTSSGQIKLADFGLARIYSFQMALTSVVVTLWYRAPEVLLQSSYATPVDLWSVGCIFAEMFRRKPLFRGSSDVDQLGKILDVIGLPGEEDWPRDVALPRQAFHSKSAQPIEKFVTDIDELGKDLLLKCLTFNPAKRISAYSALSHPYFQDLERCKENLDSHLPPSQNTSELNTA", "type": "cell-based", "conditions": "for logFC CDK6: CDK6 (Q00534), direction down; for logFC of CDK6 (Q00534): down"}, "[2]": {"molecular_target": "T1, protein kinases (human kinome) (Homo sapiens, UniProt Q969Z0)", "T1 sequence (Q969Z0 108-631)": "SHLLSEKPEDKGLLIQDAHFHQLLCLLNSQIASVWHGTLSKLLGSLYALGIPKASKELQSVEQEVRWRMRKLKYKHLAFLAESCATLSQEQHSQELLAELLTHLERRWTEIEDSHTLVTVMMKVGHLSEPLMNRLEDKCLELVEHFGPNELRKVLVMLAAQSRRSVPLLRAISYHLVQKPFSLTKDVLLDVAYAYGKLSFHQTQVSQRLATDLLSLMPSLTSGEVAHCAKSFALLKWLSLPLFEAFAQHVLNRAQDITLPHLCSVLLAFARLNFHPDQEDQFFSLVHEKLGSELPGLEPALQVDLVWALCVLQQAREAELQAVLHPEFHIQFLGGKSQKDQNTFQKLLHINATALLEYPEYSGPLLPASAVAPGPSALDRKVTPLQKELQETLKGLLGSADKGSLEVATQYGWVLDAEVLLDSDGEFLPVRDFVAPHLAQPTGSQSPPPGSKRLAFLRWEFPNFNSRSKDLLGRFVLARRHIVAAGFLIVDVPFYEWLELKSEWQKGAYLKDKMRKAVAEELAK", "type": "cell-based", "conditions": "Accession Q969Z0-1, direction down"}, "[3]": {"molecular_target": "T2, extended human kinome (kinase-like proteins) (Homo sapiens, UniProt P54886)", "T2 sequence (P54886 1-795)": "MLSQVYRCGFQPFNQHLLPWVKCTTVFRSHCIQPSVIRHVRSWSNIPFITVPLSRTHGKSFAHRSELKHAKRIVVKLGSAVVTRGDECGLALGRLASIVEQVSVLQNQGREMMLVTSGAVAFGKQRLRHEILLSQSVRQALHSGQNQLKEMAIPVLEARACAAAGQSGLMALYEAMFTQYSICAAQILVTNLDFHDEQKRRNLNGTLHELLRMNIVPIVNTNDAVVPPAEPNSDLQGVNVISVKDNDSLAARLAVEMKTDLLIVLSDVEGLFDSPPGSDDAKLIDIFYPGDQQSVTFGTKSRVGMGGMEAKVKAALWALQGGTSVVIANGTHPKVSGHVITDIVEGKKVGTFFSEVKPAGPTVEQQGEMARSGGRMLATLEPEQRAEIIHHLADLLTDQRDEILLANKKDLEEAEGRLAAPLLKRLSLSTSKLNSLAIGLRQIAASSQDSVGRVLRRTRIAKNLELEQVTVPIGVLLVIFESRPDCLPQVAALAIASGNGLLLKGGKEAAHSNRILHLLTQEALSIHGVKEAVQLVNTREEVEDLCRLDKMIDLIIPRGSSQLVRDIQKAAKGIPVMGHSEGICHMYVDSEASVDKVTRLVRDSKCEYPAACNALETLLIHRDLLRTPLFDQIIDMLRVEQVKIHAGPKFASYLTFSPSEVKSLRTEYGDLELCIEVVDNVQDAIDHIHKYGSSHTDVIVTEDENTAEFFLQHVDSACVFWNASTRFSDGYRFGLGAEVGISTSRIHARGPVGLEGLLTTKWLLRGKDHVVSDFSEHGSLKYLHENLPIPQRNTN", "assay": "Whole cell quantitative proteomics: extended kinome hits", "conditions": "Accession P54886"}, "[4]": {"molecular_target": "protein kinases (human kinome) (Homo sapiens, UniProt P53667)", "sequence (P53667 whole entry)": "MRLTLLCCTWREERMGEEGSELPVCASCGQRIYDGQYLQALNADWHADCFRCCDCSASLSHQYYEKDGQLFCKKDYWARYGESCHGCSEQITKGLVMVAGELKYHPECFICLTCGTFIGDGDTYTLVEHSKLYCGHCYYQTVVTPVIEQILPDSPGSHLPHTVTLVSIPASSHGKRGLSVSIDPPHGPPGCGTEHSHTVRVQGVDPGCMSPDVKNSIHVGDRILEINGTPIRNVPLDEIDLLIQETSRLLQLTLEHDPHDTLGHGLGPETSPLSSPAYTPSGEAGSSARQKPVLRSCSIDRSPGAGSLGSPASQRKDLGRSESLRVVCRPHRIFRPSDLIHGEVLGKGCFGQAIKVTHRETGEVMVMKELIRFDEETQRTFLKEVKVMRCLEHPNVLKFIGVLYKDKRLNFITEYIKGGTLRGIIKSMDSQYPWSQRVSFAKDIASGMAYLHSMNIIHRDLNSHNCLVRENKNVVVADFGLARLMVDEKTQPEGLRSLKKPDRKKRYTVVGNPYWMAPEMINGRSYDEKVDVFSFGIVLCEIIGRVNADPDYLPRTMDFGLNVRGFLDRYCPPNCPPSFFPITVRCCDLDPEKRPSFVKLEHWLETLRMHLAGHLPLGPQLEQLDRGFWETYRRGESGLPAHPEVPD", "type": "cell-based", "conditions": "LIMK1 (P53667-1)"}, "[5]": {"conditions": "direction down, experiment wp137"}, "[6]": {"conditions": "direction down, experiment wp147, 1 uM"}, "[7]": {"conditions": "direction down, experiment wp147, 2 uM"}, "[8]": {"conditions": "direction down, experiment wp147, 4 uM"}},
  "note": "Where two headings read alike, the source gives them in different places.",
  "data": [
    {"smiles": "CN(C)C(=O)c1cc2cnc(Nc3ccc(N4CCN(CCCCNC(=O)COc5cccc6c5C(=O)N(C5CCC(=O)NC5=O)C6=O)CC4)cn3)nc2n1C1CCCC1", "note": "(stereo not drawn) [BSJ.04.132]", "values": [
      {"measurement": "logFC CDK6", "setting": "[1]; experiment wp084", "result": "−0.7531"},
      {"measurement": "logFC of CDK6 (Q00534)", "setting": "[1]; Experiment wp084", "result": "−0.7531"},
      {"measurement": "logFC TBRG4", "setting": "[2]; experiment wp084", "result": "−0.6395"},
      {"measurement": "logFC ALDH18A1", "setting": "[3]; experiment wp084", "result": "−0.6568"}
    ]},
    {"smiles": "CC(C)(C)c1nc(-c2cccc(NS(=O)(=O)c3c(F)cccc3F)c2F)c(-c2ccnc(NCCOCCNC(=O)CCOCCOCCNc3cccc4c3C(=O)N(C3CCC(=O)NC3=O)C4=O)n2)s1", "note": "(stereo not drawn) [DD.03.106]", "values": [
      {"measurement": "logFC LIMK1", "setting": "[4]; direction down, experiment wp047", "result": "−1.637"},
      {"measurement": "logFC LIMK1", "setting": "[4]; [5]", "result": "−1.981"},
      {"measurement": "logFC LIMK1", "setting": "[4]; [6]", "result": "−2.959"},
      {"measurement": "logFC LIMK1", "setting": "[4]; [7]", "result": "−2.2"},
      {"measurement": "logFC LIMK1", "setting": "[4]; [8]", "result": "−0.637"},
      {"measurement": "logFC LIMK1", "setting": "[4]; experiment wp047, down", "result": "−1.637"},
      {"measurement": "logFC LIMK1", "setting": "[4]; experiment wp137, down", "result": "−1.981"},
      {"measurement": "logFC LIMK1", "setting": "[4]; experiment wp147, 1 uM, down", "result": "−2.959"},
      {"measurement": "logFC LIMK1", "setting": "[4]; experiment wp147, 2 uM, down", "result": "−2.2"},
      {"measurement": "logFC LIMK1", "setting": "[4]; experiment wp147, 4 uM, down", "result": "−0.637"},
      {"measurement": "logFC CDK6", "setting": "[1]; experiment wp047", "result": "−1.086"},
      {"measurement": "logFC CDK6", "setting": "[1]; experiment wp137", "result": "−1.083"},
      {"measurement": "logFC CDK6", "setting": "[1]; experiment wp147, 1 uM", "result": "−0.8934"},
      {"measurement": "logFC CDK6", "setting": "[1]; experiment wp147, 2 uM", "result": "−1.348"},
      {"measurement": "logFC CDK6", "setting": "[1]; experiment wp147, 4 uM", "result": "−1.159"},
      {"measurement": "logFC of CDK6 (Q00534)", "setting": "[1]; Experiment wp047", "result": "−1.086"},
      {"measurement": "logFC of CDK6 (Q00534)", "setting": "[1]; Experiment wp137", "result": "−1.083"},
      {"measurement": "logFC of CDK6 (Q00534)", "setting": "[1]; Experiment wp147, 1 uM", "result": "−0.8934"},
      {"measurement": "logFC of CDK6 (Q00534)", "setting": "[1]; Experiment wp147, 2 uM", "result": "−1.348"},
      {"measurement": "logFC of CDK6 (Q00534)", "setting": "[1]; Experiment wp147, 4 uM", "result": "−1.159"},
      {"measurement": "logFC TBRG4", "setting": "[2]; experiment wp147, 4 uM", "result": "−0.7514"},
      {"measurement": "logFC ALDH18A1", "setting": "[3]; experiment wp147, 1 uM", "result": "−0.3463"},
      {"measurement": "logFC ALDH18A1", "setting": "[3]; experiment wp147, 4 uM", "result": "−0.8823"}
    ]},
    {"smiles": "CC(C)(C)c1nc(-c2cccc(NS(=O)(=O)c3c(F)cccc3F)c2F)c(-c2ccnc(NCCOCCNC(=O)CCOCCOCCNc3cccc4c3CN(C3CCC(=O)NC3=O)C4=O)n2)s1", "note": "(stereo not drawn) [DD.03.107]", "values": [
      {"measurement": "logFC LIMK1", "setting": "[4]; direction down, experiment wp056", "result": "−0.9594"},
      {"measurement": "logFC LIMK1", "setting": "[4]; [5]", "result": "−1.222"},
      {"measurement": "logFC LIMK1", "setting": "[4]; [6]", "result": "−0.9691"},
      {"measurement": "logFC LIMK1", "setting": "[4]; [7]", "result": "−1.375"},
      {"measurement": "logFC LIMK1", "setting": "[4]; [8]", "result": "−1.536"},
      {"measurement": "logFC LIMK1", "setting": "[4]; experiment wp056, down", "result": "−0.9594"},
      {"measurement": "logFC LIMK1", "setting": "[4]; experiment wp137, down", "result": "−1.222"},
      {"measurement": "logFC LIMK1", "setting": "[4]; experiment wp147, 1 uM, down", "result": "−0.9691"},
      {"measurement": "logFC LIMK1", "setting": "[4]; experiment wp147, 2 uM, down", "result": "−1.375"},
      {"measurement": "logFC LIMK1", "setting": "[4]; experiment wp147, 4 uM, down", "result": "−1.536"},
      {"measurement": "logFC TBRG4", "setting": "[2]; experiment wp147, 1 uM", "result": "−0.6245"},
      {"measurement": "logFC TBRG4", "setting": "[2]; experiment wp147, 2 uM", "result": "−0.6284"},
      {"measurement": "logFC TBRG4", "setting": "[2]; experiment wp147, 4 uM", "result": "−1.105"},
      {"measurement": "logFC ALDH18A1", "setting": "[3]; experiment wp147, 1 uM", "result": "−0.6536"},
      {"measurement": "logFC ALDH18A1", "setting": "[3]; experiment wp147, 2 uM", "result": "−0.7374"},
      {"measurement": "logFC ALDH18A1", "setting": "[3]; experiment wp147, 4 uM", "result": "−1.326"}
    ]},
    {"smiles": "O=C(COc1cccc2c1C(=O)N(C1CCC(=O)NC1=O)C2=O)NCCCCCCCC(=O)NC1(c2ccc(-c3nc4ccn5c(=O)[nH]nc5c4cc3-c3ccccc3)cc2)CCC1", "note": "(stereo not drawn) [INY.01.140.1]", "values": [
      {"measurement": "logFC TBRG4", "setting": "[2]; experiment wp081", "result": "−0.4208"},
      {"measurement": "logFC ALDH18A1", "setting": "[3]; experiment wp081", "result": "−0.4491"}
    ]},
    {"smiles": "CNC(=O)c1ccccc1Nc1cc(Nc2ccc(N3CCN(CCOCCOCCNC(=O)CNc4cccc5c4C(=O)N(C4CCC(=O)NC4=O)C5=O)CC3)cc2OC)ncc1C(F)(F)F", "note": "(stereo not drawn) [MFH.5.103.1]", "values": [
      {"measurement": "logFC TBRG4", "setting": "[2]; experiment wp076", "result": "−0.3858"},
      {"measurement": "logFC ALDH18A1", "setting": "[3]; experiment wp076", "result": "−0.4191"}
    ]},
    {"smiles": "Cn1c(=O)c(-c2c(Cl)cccc2Cl)cc2cnc(Nc3ccc(OCCNC(=O)CCCCCCNC(=O)COc4cccc5c4C(=O)N(C4CCC(=O)NC4=O)C5=O)cc3)nc21", "note": "(stereo not drawn) [SB1.G.192.1]", "values": [
      {"measurement": "logFC TBRG4", "setting": "[2]; experiment wp081", "result": "−0.3452"},
      {"measurement": "logFC ALDH18A1", "setting": "[3]; experiment wp081", "result": "−0.39"}
    ]},
    {"smiles": "CC(C)S(=O)(=O)c1ccccc1Nc1nc(Nc2ccc(N3CCN(CCOCCOCCNC(=O)CNc4cccc5c4C(=O)N(C4CCC(=O)NC4=O)C5=O)CC3)cc2)ncc1Cl", "note": "(stereo not drawn) [TL12.186]", "values": [
      {"measurement": "logFC LIMK1", "setting": "[4]; direction down, experiment wp131", "result": "−1.055"},
      {"measurement": "logFC LIMK1", "setting": "[4]; [5]", "result": "−0.8734"},
      {"measurement": "logFC LIMK1", "setting": "[4]; experiment wp131, down", "result": "−1.055"},
      {"measurement": "logFC LIMK1", "setting": "[4]; experiment wp137, down", "result": "−0.8734"},
      {"measurement": "logFC CDK6", "setting": "[1]; experiment wp016", "result": "−0.5831"},
      {"measurement": "logFC CDK6", "setting": "[1]; experiment wp131", "result": "−0.9892"},
      {"measurement": "logFC CDK6", "setting": "[1]; experiment wp137", "result": "−0.8724"},
      {"measurement": "logFC of CDK6 (Q00534)", "setting": "[1]; Experiment wp016", "result": "−0.5831"},
      {"measurement": "logFC of CDK6 (Q00534)", "setting": "[1]; Experiment wp131", "result": "−0.9892"},
      {"measurement": "logFC of CDK6 (Q00534)", "setting": "[1]; Experiment wp137", "result": "−0.8724"},
      {"measurement": "logFC TBRG4", "setting": "[2]; experiment wp137", "result": "−0.3425"}
    ]}
  ]
}
